Assay results reported in patent US11807693B2 (priority 2014, dated 2023).
Starred links: 1 amine or outer side, 2 acyl side, 3 side chain; linkers in the order of their positions; H or OH if unused. Non-standard residues stand in square brackets, D forms with d. Residues, ends and D or L forms follow the SMILES beside them. *: point of attachment. Oic = O=C(O)[C@@H]1C[C@@H]2CCCC[C@@H]2N1; Phe(4-Cl) = N[C@@H](Cc1ccc(Cl)cc1)C(=O)O; γGlu = O=C(O)[C@H](CCC(=O)[*:2])N[*:1]; NMehArg = CN[C@@H](CCCCNC(=N)N)C(=O)O; d(β3hF) = N[C@@H](CC(=O)O)Cc1ccccc1; dIgl = N[C@@H](C(=O)O)C1Cc2ccccc2C1; NMeR = CN[C@@H](CCCNC(=N)N)C(=O)O; Palmitoyl = CCCCCCCCCCCCCCCC(=O)*; Tridecanoyl = CCCCCCCCCCCCC(=O)*; hArg = N=C(N)NCCCC[C@H](N)C(=O)O; Cha = N[C@@H](CC1CCCCC1)C(=O)O; Tle = CC(C)(C)[C@H](N)C(=O)O; β3hP = O=C(O)C[C@@H]1CCCN1; Pip = O=C(O)[C@@H]1CCCCN1; Nle = CCCC[C@H](N)C(=O)O; Pra = C#CC[C@H](N)C(=O)O; Deg = CCC(N)(CC)C(=O)O; AEEA = NCCOCCOCC(=O)O

target: T1, rat APJ receptor (Rattus norvegicus, UniProt Q9JHG3); experiment: [35S] GTPγS assay, rat APJ receptor; format: biochemical; settings: Table 16, read-out: EC50 Rat APJ Receptor
T1 construct: expressed in transfected cells
T1 sequence (Q9JHG3 1-377): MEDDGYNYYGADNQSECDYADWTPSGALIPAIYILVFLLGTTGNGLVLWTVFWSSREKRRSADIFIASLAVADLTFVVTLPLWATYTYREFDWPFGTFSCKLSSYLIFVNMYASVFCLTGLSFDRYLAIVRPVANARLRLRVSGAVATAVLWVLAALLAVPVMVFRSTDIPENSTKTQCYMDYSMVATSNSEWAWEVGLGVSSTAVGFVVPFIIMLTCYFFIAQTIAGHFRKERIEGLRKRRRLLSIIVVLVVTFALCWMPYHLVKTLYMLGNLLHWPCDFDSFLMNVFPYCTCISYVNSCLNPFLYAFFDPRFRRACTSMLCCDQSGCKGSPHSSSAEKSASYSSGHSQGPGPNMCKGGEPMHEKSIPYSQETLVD
Description: The membranes were incubated with modified peptides in the assay buffer. […] Bound [^35S] GTPγS was separated from free radiolabel by filtration. The filter bound radioactivity was determined by liquid scintillation counting.

Compound | EC50 [nM]
CCCCCCCCCCCCC(=O)N[C@@H](CCC(=O)NCCOCCOCC(=O)NCCOCCOCC(=O)N[C@@H](CCC(N)=O)C(=O)N[C@@H](CCCNC(=N)N)C(=O)N1CCC[C@H]1C(=O)N(C)[C@@H](CCCNC(=N)N)C(=O)N[C@@H](CC1CCCCC1)C(=O)N[C@@H](CO)C(=O)N[C@@H](Cc1c[nH]cn1)C(=O)N[C@@H](CCCCN)C(=O)NCC(=O)N1CCC[C@H]1CC(=O)N[C@@H](CCCC)C(=O)N1CCC[C@H]1C(=O)N[C@@H](Cc1ccc(Cl)cc1)C(=O)O)C(=O)O [compound 417] ({Tridecanoyl-γGlu-AEEA-AEEA}-QRP[NMeR][Cha]SHKG[β3hP][Nle]P[Phe(4-Cl)]-OH) | 8.1
CCCCCCCCCCCCC(=O)N[C@@H](CCC(=O)NCCOCCOCC(=O)NCCOCCOCC(=O)N[C@H](CCC(N)=O)C(=O)N[C@@H](CCCCNC(=N)N)C(=O)N1CCC[C@H]1C(=O)N[C@H](CCCNC(=N)N)C(=O)N[C@@H](CC1CCCCC1)C(=O)N[C@@H](CO)C(=O)N[C@@H](Cc1c[nH]cn1)C(=O)N[C@@H](CCCCN)C(=O)NCC(=O)N1[C@H](C(=O)N[C@@H](CCCC)C(=O)N2CCC[C@H]2C(=O)N[C@@H](C(=O)O)C2Cc3ccccc3C2)C[C@@H]2CCCC[C@@H]21)C(=O)O [compound 431] ({Tridecanoyl-γGlu-AEEA-AEEA}-[dQ][hArg]P[dR][Cha]SHKG[Oic][Nle]P[dIgl]-OH) | 25
CCCCCCCCCCCCC(=O)N[C@@H](CCC(=O)NCCOCCOCC(=O)NCCOCCOCC(=O)N[C@H](CCC(N)=O)C(=O)N[C@@H](CCCCNC(=N)N)C(=O)N1CCC[C@H]1C(=O)N[C@H](CCCNC(=N)N)C(=O)N[C@H](C(=O)N[C@@H](CO)C(=O)N[C@@H](Cc1c[nH]cn1)C(=O)N[C@@H](CCCCN)C(=O)NCC(=O)N1[C@H](C(=O)N[C@@H](CCCC)C(=O)N2CCC[C@H]2C(=O)N[C@@H](Cc2ccc(Cl)cc2)C(=O)O)C[C@@H]2CCCC[C@@H]21)C(C)(C)C)C(=O)O [compound 433] ({Tridecanoyl-γGlu-AEEA-AEEA}-[dQ][hArg]P[dR][Tle]SHKG[Oic][Nle]P[Phe(4-Cl)]-OH) | 19.8
CCCCCCCCCCCCC(=O)N[C@@H](CCC(=O)NCCOCCOCC(=O)NCCOCCOCC(=O)N[C@@H](CCC(N)=O)C(=O)N[C@H](CCCNC(=N)N)C(=O)N1CCC[C@H]1C(=O)N(C)[C@@H](CCCCNC(=N)N)C(=O)N[C@@H](CC1CCCCC1)C(=O)N[C@@H](CO)C(=O)N[C@@H](Cc1c[nH]cn1)C(=O)N[C@@H](CCCCN)C(=O)NCC(=O)N1CCC[C@H]1C(=O)N[C@@H](CCCC)C(=O)N1CCC[C@H]1C(=O)N[C@@H](Cc1ccc(Cl)cc1)C(=O)O)C(=O)O [compound 435] ({Tridecanoyl-γGlu-AEEA-AEEA}-Q[dR]P[NMehArg][Cha]SHKGP[Nle]P[Phe(4-Cl)]-OH) | 1.15
CCCCCCCCCCCCC(=O)N[C@@H](CCC(=O)NCCOCCOCC(=O)NCCOCCOCC(=O)N[C@@H](CCC(N)=O)C(=O)N[C@@H](CCCNC(=N)N)C(=O)N1CCC[C@H]1C(=O)N(C)[C@@H](CCCNC(=N)N)C(=O)N[C@H](C(=O)N[C@@H](CO)C(=O)N[C@@H](Cc1c[nH]cn1)C(=O)N[C@@H](CCCCN)C(=O)NCC(=O)N1[C@H](C(=O)N[C@@H](CCCC)C(=O)N2CCC[C@H]2C(=O)N[C@@H](Cc2ccc(Cl)cc2)C(=O)O)C[C@@H]2CCCC[C@@H]21)C(C)(C)C)C(=O)O [compound 439] ({Tridecanoyl-γGlu-AEEA-AEEA}-QRP[NMeR][Tle]SHKG[Oic][Nle]P[Phe(4-Cl)]-OH) | 3.21
C#CC[C@H](NC(=O)[C@H](CC(C)C)NC(=O)[C@H](CCCNC(=N)N)N(C)C(=O)[C@@H]1CCCN1C(=O)[C@H](CCCNC(=N)N)NC(=O)[C@H](CCC(N)=O)NC(=O)COCCOCCNC(=O)COCCOCCNC(=O)CC[C@H](NC(=O)CCCCCCCCCCCC)C(=O)O)C(=O)N[C@@H](Cc1c[nH]cn1)C(=O)N[C@@H](CCCCN)C(=O)NCC(=O)N1CCC[C@H]1C(=O)N[C@@H](CCCC)C(=O)N1CCC[C@H]1C(=O)N[C@@H](Cc1ccc(Cl)cc1)C(=O)O [compound 450] ({Tridecanoyl-γGlu-AEEA-AEEA}-QRP[NMeR]L[Pra]HKGP[Nle]P[Phe(4-Cl)]-OH) | 0.313
CCCCCCCCCCCCC(=O)N[C@@H](CCC(=O)NCCOCCOCC(=O)NCCOCCOCC(=O)N[C@H](CCC(N)=O)C(=O)N[C@@H](CCCCNC(=N)N)C(=O)N1CCC[C@H]1C(=O)N[C@H](CCCNC(=N)N)C(=O)N[C@@H](CC1CCCCC1)C(=O)N[C@@H](CO)C(=O)NC(CC)(CC)C(=O)N[C@@H](CCCCN)C(=O)NCC(=O)N1[C@H](C(=O)N[C@@H](CCCC)C(=O)N2CCC[C@H]2C(=O)N[C@@H](Cc2ccc(Cl)cc2)C(=O)O)C[C@@H]2CCCC[C@@H]21)C(=O)O [compound 451] ({Tridecanoyl-γGlu-AEEA-AEEA}-[dQ][hArg]P[dR][Cha]S[Deg]KG[Oic][Nle]P[Phe(4-Cl)]-OH) | 31.7
CCCCCCCCCCCCC(=O)N[C@@H](CCC(=O)NCCOCCOCC(=O)NCCOCCOCC(=O)N[C@H](CCC(N)=O)C(=O)N[C@@H](CCCCNC(=N)N)C(=O)NC(CC)(CC)C(=O)N[C@H](CCCNC(=N)N)C(=O)N[C@@H](CC1CCCCC1)C(=O)N[C@@H](CO)C(=O)N[C@@H](Cc1c[nH]cn1)C(=O)N[C@@H](CCCCN)C(=O)NCC(=O)N1[C@H](C(=O)N[C@@H](CCCC)C(=O)N2CCC[C@H]2C(=O)N[C@@H](Cc2ccc(Cl)cc2)C(=O)O)C[C@@H]2CCCC[C@@H]21)C(=O)O [compound 455] ({Tridecanoyl-γGlu-AEEA-AEEA}-[dQ][hArg][Deg][dR][Cha]SHKG[Oic][Nle]P[Phe(4-Cl)]-OH) | 10.3
CCCCCCCCCCCCC(=O)N[C@@H](CCC(=O)NCCOCCOCC(=O)NCCOCCOCC(=O)N[C@@H](CCC(N)=O)C(=O)N[C@@H](CCCNC(=N)N)C(=O)N1CCC[C@H]1C(=O)N(C)[C@@H](CCCNC(=N)N)C(=O)N(C)[C@@H](CC(C)C)C(=O)N[C@@H](CO)C(=O)N[C@@H](Cc1c[nH]cn1)C(=O)N[C@@H](CCCCN)C(=O)NCC(=O)N1CCC[C@H]1C(=O)N[C@@H](CCCC)C(=O)N1CCC[C@H]1C(=O)N[C@@H](Cc1ccc(Cl)cc1)C(=O)O)C(=O)O [compound 459] | 0.23
CCCCCCCCCCCCC(=O)N[C@@H](CCC(=O)NCCOCCOCC(=O)NCCOCCOCC(=O)N[C@@H](CCC(N)=O)C(=O)N[C@@H](CCCCNC(=N)N)C(=O)N1CCC[C@H]1C(=O)N(C)[C@@H](CCCNC(=N)N)C(=O)N[C@@](C)(CC(C)C)C(=O)N[C@@H](CO)C(=O)N[C@@H](Cc1c[nH]cn1)C(=O)N[C@@H](CCCCN)C(=O)NCC(=O)N1CCC[C@H]1C(=O)N[C@@H](CCCC)C(=O)N1CCC[C@H]1C(=O)N[C@@H](Cc1ccc(Cl)cc1)C(=O)O)C(=O)O [compound 460] | 0.0627
CCCCCCCCCCCCC(=O)N[C@@H](CCC(=O)NCCOCCOCC(=O)NCCOCCOCC(=O)N[C@@H](CCC(N)=O)C(=O)N[C@@H](CCCNC(=N)N)C(=O)N1CCC[C@H]1C(=O)N[C@@H](CCC(N)=O)C(=O)N[C@@H](CC(C)C)C(=O)N[C@@H](CO)C(=O)N[C@@H](Cc1c[nH]cn1)C(=O)N[C@@H](CCCCN)C(=O)NCC(=O)N1CCC[C@H]1C(=O)N[C@@H](CCCC)C(=O)N1CCC[C@H]1C(=O)N[C@@H](Cc1ccc(Cl)cc1)C(=O)O)C(=O)O [compound 465] ({Tridecanoyl-γGlu-AEEA-AEEA}-QRPQLSHKGP[Nle]P[Phe(4-Cl)]-OH) | 0.175

same assay, conditions: rat APJ receptor, read-out: EC50 Rat APJ Receptor

Compound | EC50 [nM]
CCCCCC(=O)N[C@@H](CCC(=O)NCCOCCOCC(=O)NCCOCCOCC(=O)N[C@@H](CCC(N)=O)C(=O)N[C@@H](CCCNC(=N)N)C(=O)N1CCC[C@H]1C(=O)N(C)[C@@H](CCCNC(=N)N)C(=O)N[C@@H](CC(C)C)C(=O)N[C@@H](CO)C(=O)N[C@@H](Cc1c[nH]cn1)C(=O)N[C@@H](CCCCN)C(=O)NCC(=O)N1CCC[C@H]1C(=O)N[C@@H](CCCC)C(=O)N1CCC[C@H]1C(=O)N[C@@H](Cc1ccc(Cl)cc1)C(=O)O)C(=O)O [compound 492] | 0.147
CCCCCCCCCC(=O)N[C@@H](CCC(=O)NCCOCCOCC(=O)NCCOCCOCC(=O)N[C@@H](CCC(N)=O)C(=O)N[C@@H](CCCNC(=N)N)C(=O)N1CCC[C@H]1C(=O)N(C)[C@@H](CCCNC(=N)N)C(=O)N[C@@H](CC(C)C)C(=O)N[C@@H](CO)C(=O)N[C@@H](Cc1c[nH]cn1)C(=O)N[C@@H](CCCCN)C(=O)NCC(=O)N1CCC[C@H]1C(=O)N[C@@H](CCCC)C(=O)N1CCC[C@H]1C(=O)N[C@@H](Cc1ccc(Cl)cc1)C(=O)O)C(=O)O [compound 494] | 0.147
CCCCCCCCCCCCC(=O)N[C@@H](CCC(=O)NCCOCCOCC(=O)NCCOCCOCC(=O)NC(CC)(CC)C(=O)N[C@@H](CCCCNC(=N)N)C(=O)N1CCC[C@H]1C(=O)N[C@H](CCCNC(=N)N)C(=O)N[C@@H](CC1CCCCC1)C(=O)N[C@@H](CO)C(=O)N[C@@H](Cc1c[nH]cn1)C(=O)N[C@@H](CCCCN)C(=O)NCC(=O)N1[C@H](C(=O)N[C@@H](CCCC)C(=O)N2CCC[C@H]2C(=O)N[C@@H](Cc2ccc(Cl)cc2)C(=O)O)C[C@@H]2CCCC[C@@H]21)C(=O)O [compound 558] ({Tridecanoyl-γGlu-AEEA-AEEA}-[Deg][hArg]P[dR][Cha]SHKG[Oic][Nle]P[Phe(4-Cl)]-OH) | 12.5
CCCCCCCCCCCCCCCC(=O)N[C@@H](CCC(=O)NCCOCCOCC(=O)NCCOCCOCC(=O)N[C@H](CCC(N)=O)C(=O)N[C@@H](CCCNC(=N)N)C(=O)N1CCC[C@H]1C(=O)N(C)[C@@H](CCCNC(=N)N)C(=O)N[C@@H](CC1CCCCC1)C(=O)N[C@@H](CO)C(=O)N[C@@H](Cc1c[nH]cn1)C(=O)N[C@@H](CCCCN)C(=O)NCC(=O)N1CCCC[C@H]1C(=O)N[C@@H](CCCC)C(=O)N[C@@H](CC(=O)O)Cc1ccccc1)C(=O)O [compound 574] ({Palmitoyl-γGlu-AEEA-AEEA}-[dQ]RP[NMeR][Cha]SHKG[Pip][Nle][d(β3hF)]-OH) | 2.83
